Where a name gives a salt, the structure may show the parent alone.
Columns and labels:
[1] = tested on: transgenic C. elegans strain CL4176 expressing human Aβ; assay: Aβ-induced paralysis in transgenic C. elegans strain CL4176; format: in vivo, Caenorhabditis elegans; settings: Example 2, FIG. 1, dose-dependent
From the text: The present invention employed the transgenic C. elegans strain CL4176 as a pathological model to evaluate the effect of the Chinese medicine and DXN on preventing or treating AD. The principle of Aβ theory of AD is based on that Aβ aggregates in the cerebral cortex and hippocampus and subsequently forms senile plaques (SP), which is one of the most major pathological features of AD. Toxic Aβ can effectively weaken the structure and function of synapses, and cause memory impairment on the AD patients. Transgenic C. elegans strain CL4176 which expresses the human Aβ species in the muscle tissue that can induce Aβ-dependent paralysis at 25° C. was used in the present invention. Aβ aggregates in the muscle tissue, eventually resulting in the paralysis of CL4176. The medicament acts on C. elegans strain CL4176.
(1) C. elegans CL4176 is purchased from Caenorhabditis Genetics Center; which is a transgenic strain and muscle-specific expression of human Aβ can be induced at 25° C., and Aβ is aggregated in muscle tissue, resulting in the paralysis of C. elegans. CL4176 worm was used in the invention as a pathological model to screen and evaluate the anti-AD actions of the Chinese medicine compositions and DXN.
The synchronized C. elegans eggs were placed onto solid NGM coated with OP50 and containing different concentration of Memantine Hydrochloride. The blank control is a NMG medium coated with OP50 and added with the same volume of ddH2O to replace the Memantine Hydrochloride. The worms were cultured at 16° C. for 3 days to L3 larvae (about 60 worms per plate). The results are presented as the average of three biological replicates.
In order to induce the Aβ expression, the culture temperature of transgenic L3 larvae C. elegans CL4176 was shifted from 16° C. to 25° C. for 34 h. Then paralysis individuals were counted under a dissecting stereo microscope at 2 h intervals until all worms became paralyzed.
The synchronized C. elegans eggs were placed onto solid NGM coated with OP50 and containing working concentration of the Chinese medicine compositions. […]

[2] = tested on: C. elegans CL4176; assay: Toxicity on growth and development (body length) of C. elegans; format: in vivo, Caenorhabditis elegans; settings: Example 2, FIG. 1
Experimental: C. elegans are sensitive to environmental changes, and drug toxicity can be accurately evaluated by using C. elegans. The body length is one of the most commonly used indictors of developmental toxicity.
After the end of paralysis experiment, worms were immediately placed at 50° C. for 15 min to straighten the body of every worm. The worms were observed and photographed under a microscope, and measured the length of every worm using MvImage system.

[3] = tested on: transgenic C. elegans strain CL4176 expressing human Aβ; settings: 2.16 mg/mL; it has been reported; cited from earlier work

CC12CC3CC(C)(C1)CC(N)(C3)C2 [Menantine Hydrochloride, 1-amino-3,5-dimethyl amantadine hydrochloride]
delay of Aβ-induced paralysis of CL4176 ([1]; 4.32 μg/mL in NGM): significantly delayed the paralysis
delay of Aβ-induced paralysis of CL4176 ([1]; 0.86m/mL in NGM): significantly delayed the paralysis
delay of Aβ-induced paralysis of CL4176 ([1]; 21.58m/mL in NGM): significantly delayed the paralysis
inhibition of development of C. elegans ([2]; 107.88 m/mL in NGM): strongly inhibit the development
inhibition of development of C. elegans ([2]; 215.76 m/mL in NGM): strongly inhibit the development
delay of Aβ-induced paralysis in transgenic CL4176 (reported) [3]: significantly delay Aβ-induced paralysis
